What was measured:
Type in all cases: cell-based
CAKI-1 = assay: Growth inhibition of human Caki1 cells assessed as growth percentage at 10 uM incubated for 48 hrs by sulforhodamine B assay; conditions: caki-1, 48 h
K562 = assay: Cytotoxicity against human K562 cells assessed as effect on cell growth at 10 uM incubated for 48 hrs by sulforhodamine B assay; conditions: k562, 48 h
SR = assay: Cytotoxicity against human SR cells assessed as effect on cell growth at 10 uM incubated for 48 hrs by sulforhodamine B assay
TK-10 = assay: Cytotoxicity against human TK10 cells assessed as effect on cell growth at 10 uM incubated for 48 hrs by sulforhodamine B assay; conditions: tk-10, 48 h
NCI/ADR-RES = assay: Cytotoxicity against human NCI/ADR-RES cells assessed as effect on cell growth at 10 uM incubated for 48 hrs by sulforhodamine B assay
RXF 393 = assay: Cytotoxicity against human RXF393 cells assessed as effect on cell growth at 10 uM incubated for 48 hrs by sulforhodamine B assay; conditions: rxf 393, 48 h
SN12C = assay: Cytotoxicity against human SN12C cells assessed as effect on cell growth at 10 uM incubated for 48 hrs by sulforhodamine B assay
UO-31 = assay: Cytotoxicity against human UO31 cells assessed as effect on cell growth at 10 uM incubated for 48 hrs by sulforhodamine B assay; conditions: uo-31, 48 h
CCRF-CEM = assay: Cytotoxicity against human CCRF-CEM cells assessed as effect on cell growth at 10 uM incubated for 48 hrs by sulforhodamine B assay
UACC-257 = assay: Cytotoxicity against human UACC257 cells assessed as effect on cell growth at 10 uM incubated for 48 hrs by sulforhodamine B assay; conditions: uacc-257, 48 h
A498 = assay: Cytotoxicity against human A498 cells assessed as effect on cell growth at 10 uM incubated for 48 hrs by sulforhodamine B assay; conditions: a498, 48 h
MDA-MB-435 = assay: Cytotoxicity against human MDA-MB-435 cells assessed as effect on cell growth at 10 uM incubated for 48 hrs by sulforhodamine B assay; conditions: mda-mb-435, 48 h
SF-539 = assay: Cytotoxicity against human SF539 cells assessed as effect on cell growth at 10 uM incubated for 48 hrs by sulforhodamine B assay; conditions: sf-539, 48 h
OVCAR-3 = assay: Cytotoxicity against human OVCAR3 cells assessed as effect on cell growth at 10 uM incubated for 48 hrs by sulforhodamine B assay; conditions: ovcar-3, 48 h
SK-MEL-28 = assay: Cytotoxicity against human SK-MEL-28 cells assessed as effect on cell growth at 10 uM incubated for 48 hrs by sulforhodamine B assay; conditions: sk-mel-28, 48 h
HCC 2998 = assay: Cytotoxicity against human HCC2998 cells assessed as effect on cell growth at 10 uM incubated for 48 hrs by sulforhodamine B assay; conditions: hcc 2998, 48 h
COLO 205 = assay: Cytotoxicity against human COLO205 cells assessed as effect on cell growth at 10 uM incubated for 48 hrs by sulforhodamine B assay; conditions: colo 205, 48 h
HOP-62 = assay: Cytotoxicity against human HOP62 cells assessed as effect on cell growth at 10 uM incubated for 48 hrs by sulforhodamine B assay; conditions: hop-62, 48 h
ACHN = assay: Cytotoxicity against human ACHN cells assessed as effect on cell growth at 10 uM incubated for 48 hrs by sulforhodamine B assay
Hs-578T = assay: Cytotoxicity against human Hs 578T cells assessed as effect on cell growth at 10 uM incubated for 48 hrs by sulforhodamine B assay

Measured: Activity

COc1cc(CNC(=O)[C@@H]2CCC(=O)N2)cc(OC)c1OC
Non-Toxic: all assays above

CN(Cc1ccccc1)C(=O)[C@@H]1CCC(=O)N1Cc1ccc(Cl)cc1Cl
Non-Toxic: all assays above

COC(=O)[C@@H]1C/C(=C\NCc2ccc(Cl)cc2Cl)C(=O)N1C(=O)OC
Non-Toxic: all assays above

O=C(NCc1ccc(Cl)cc1Cl)[C@@H]1CCC(=O)N1Cc1ccccc1
Non-Toxic: all assays above

COc1ccc(CN2C(=O)CC[C@H]2C(=O)NCCc2ccccc2)cc1
Non-Toxic: all assays above

O=C(NCc1ccc(Cl)cc1Cl)[C@@H]1CCC(=O)N1c1ccccc1
Non-Toxic: all assays above

O=C(NCc1ccc(Cl)cc1Cl)[C@@H]1CCC(=O)N1c1cccs1
Non-Toxic: all assays above

O=C(NCc1ccc(Cl)cc1Cl)[C@@H]1CCC(=O)N1c1cscn1
Non-Toxic: all assays above

O=C(NCc1ccccc1)[C@@H]1CCC(=O)N1Cc1ccc(Cl)cc1Cl
Non-Toxic: all assays above

From ChEMBL document CHEMBL4627246, “Pyroglutamide-Based P2X7 Receptor Antagonists Targeting Inflammatory Bowel Disease” (J Med Chem, 2020)
